Source: US20250059217A1, “HETEROCYCLIC COMPOUNDS AND METHODS OF PREPARATION THEREOF” (priority 2021, published 2025)
Like-named read-outs stand apart in the source and are kept apart here.

Legend:
5-HT2B receptor = molecular target: T1, 5-HT2B receptor (Homo sapiens, UniProt P41595); test: Serotonin receptor 5-HT2 functional assay (Gq dissociation BRET or Gq-dependent calcium flux), 5-HT2B; type: cell-based
T1 construct: expressed in transfected cells; host or cells: HEK293T

5-HT6 receptor = 5-HT6 receptor (Homo sapiens, UniProt P50406); test: Functional activity at other receptor sites relative to psilocin (Table 5), 5-HT6; details: for 5-HT6 Eff %: Table 5, 5-HT6 receptor, compared with psilocin
other receptor sites [1] = test: Functional activity at other receptor sites relative to psilocin (Table 5), further receptors; details: compared with psilocin; for 5-HT1A Eff %: 5-HT1A receptor; for 5-HT1B Eff %: 5-HT1B receptor; for 5-HT1D Eff %: 5-HT1D receptor; for 5-HT1E Eff %: 5-HT1E receptor; for 5-HT4 Eff %: 5-HT4 receptor; for 5-HT5A Eff %: 5-HT5A receptor; for 5-HT7 Eff %: 5-HT7 receptor
other receptor sites [2] = molecular target: other receptor sites (Homo sapiens, UniProt P34969); test: as above; details: read-out: 5-HT7 EC50, 5-HT7 receptor, compared with psilocin
other receptor sites [3] = molecular target: other receptor sites (Homo sapiens, UniProt Q13639); test: as above; details: read-out: 5-HT4 EC50, 5-HT4 receptor, compared with psilocin
5-HT2A receptor = molecular target: T2, 5-HT2A receptor (Homo sapiens, UniProt P28223); test: Serotonin receptor 5-HT2 functional assay (Gq dissociation BRET or Gq-dependent calcium flux), 5-HT2A; type: cell-based
T2 construct: expressed in transfected cells; host or cells: HEK293T

5-HT1F receptor = molecular target: T3, 5-HT1F receptor (Homo sapiens, UniProt P30939); test: Functional activity at other receptor sites relative to psilocin (Table 5), 5-HT1F; details: for 5-HT1F Eff %: Table 5, 5-HT1F receptor, compared with psilocin
T3 sequence (P30939 1-366): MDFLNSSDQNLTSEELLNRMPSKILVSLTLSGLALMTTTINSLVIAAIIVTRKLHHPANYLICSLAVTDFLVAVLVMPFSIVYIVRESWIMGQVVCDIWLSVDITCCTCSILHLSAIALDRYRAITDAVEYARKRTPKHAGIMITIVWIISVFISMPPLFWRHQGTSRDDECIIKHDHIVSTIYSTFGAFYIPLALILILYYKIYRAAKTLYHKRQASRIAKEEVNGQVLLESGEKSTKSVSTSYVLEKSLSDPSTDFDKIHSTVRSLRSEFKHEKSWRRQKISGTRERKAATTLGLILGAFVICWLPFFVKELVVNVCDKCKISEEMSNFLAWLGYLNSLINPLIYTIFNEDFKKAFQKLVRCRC

5-HT2C receptor = molecular target: T4, 5-HT2C receptor (Homo sapiens, UniProt P28335); test: cell-based
T4 construct: expressed in transfected cells; host or cells: HEK293T
T4 sequence (P28335 33-458): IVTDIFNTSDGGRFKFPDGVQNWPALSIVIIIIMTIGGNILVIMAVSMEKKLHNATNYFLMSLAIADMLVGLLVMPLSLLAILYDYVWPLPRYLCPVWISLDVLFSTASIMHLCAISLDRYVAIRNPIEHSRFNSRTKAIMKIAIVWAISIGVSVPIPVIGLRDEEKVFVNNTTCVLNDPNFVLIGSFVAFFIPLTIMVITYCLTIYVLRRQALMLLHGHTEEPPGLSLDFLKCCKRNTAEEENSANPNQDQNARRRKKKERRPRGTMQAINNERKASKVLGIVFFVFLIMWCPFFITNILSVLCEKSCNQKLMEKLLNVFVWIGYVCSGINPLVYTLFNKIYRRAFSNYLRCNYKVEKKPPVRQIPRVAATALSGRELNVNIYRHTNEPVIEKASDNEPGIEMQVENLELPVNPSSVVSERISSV

other receptor sites [4] = molecular target: other receptor sites (Homo sapiens, UniProt P28566); test: Functional activity at other receptor sites relative to psilocin (Table 5), further receptors; details: read-out: 5-HT1E EC50, 5-HT1E receptor, compared with psilocin
other receptor sites [5] = molecular target: other receptor sites (Homo sapiens, UniProt P28222); test: as above; details: read-out: 5-HT1B EC50, 5-HT1B receptor, compared with psilocin
other receptor sites [6] = molecular target: T5, other receptor sites (Homo sapiens, UniProt P08908); test: as above; details: read-out: 5-HT1A EC50, 5-HT1A receptor, compared with psilocin
T5 sequence (P08908 1-422): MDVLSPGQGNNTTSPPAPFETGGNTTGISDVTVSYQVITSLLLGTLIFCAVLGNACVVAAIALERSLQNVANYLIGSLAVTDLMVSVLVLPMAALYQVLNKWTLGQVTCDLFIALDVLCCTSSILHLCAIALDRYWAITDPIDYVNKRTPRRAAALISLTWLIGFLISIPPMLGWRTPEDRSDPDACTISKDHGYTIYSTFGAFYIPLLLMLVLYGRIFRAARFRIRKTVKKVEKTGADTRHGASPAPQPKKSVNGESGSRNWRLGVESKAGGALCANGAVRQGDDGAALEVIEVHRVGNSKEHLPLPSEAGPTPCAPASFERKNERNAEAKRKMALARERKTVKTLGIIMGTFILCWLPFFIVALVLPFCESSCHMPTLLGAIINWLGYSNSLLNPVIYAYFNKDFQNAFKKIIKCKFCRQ

other receptor sites [7] = molecular target: other receptor sites (Homo sapiens, UniProt P28221); test: as above; details: read-out: 5-HT1D EC50, 5-HT1D receptor, compared with psilocin
other receptor sites [8] = molecular target: other receptor sites (Homo sapiens, UniProt P47898); test: as above; details: read-out: 5-HT5A EC50, 5-HT5A receptor, compared with psilocin
[9] = Table 5, 5-HT2B receptor, compared with psilocin
[10] = Table 5, 5-HT2A receptor, compared with psilocin
[11] = Table 4, efficacy relative to 4-hydroxytryptamine, at least three replicate trials

T1 sequence (P41595 whole entry): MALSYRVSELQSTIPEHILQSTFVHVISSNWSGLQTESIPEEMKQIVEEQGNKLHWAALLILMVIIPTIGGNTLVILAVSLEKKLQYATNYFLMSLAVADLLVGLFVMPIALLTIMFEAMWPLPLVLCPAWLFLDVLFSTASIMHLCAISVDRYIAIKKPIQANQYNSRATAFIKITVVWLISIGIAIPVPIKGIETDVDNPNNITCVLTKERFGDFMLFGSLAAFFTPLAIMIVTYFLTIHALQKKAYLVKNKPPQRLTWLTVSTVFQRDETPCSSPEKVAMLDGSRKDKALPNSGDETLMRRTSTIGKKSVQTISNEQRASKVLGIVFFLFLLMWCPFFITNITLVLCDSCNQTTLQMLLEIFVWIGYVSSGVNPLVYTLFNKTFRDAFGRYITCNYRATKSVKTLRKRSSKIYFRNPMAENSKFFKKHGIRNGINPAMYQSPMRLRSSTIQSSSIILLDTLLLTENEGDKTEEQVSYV
Chain of 5-HT6 receptor (P50406 whole entry): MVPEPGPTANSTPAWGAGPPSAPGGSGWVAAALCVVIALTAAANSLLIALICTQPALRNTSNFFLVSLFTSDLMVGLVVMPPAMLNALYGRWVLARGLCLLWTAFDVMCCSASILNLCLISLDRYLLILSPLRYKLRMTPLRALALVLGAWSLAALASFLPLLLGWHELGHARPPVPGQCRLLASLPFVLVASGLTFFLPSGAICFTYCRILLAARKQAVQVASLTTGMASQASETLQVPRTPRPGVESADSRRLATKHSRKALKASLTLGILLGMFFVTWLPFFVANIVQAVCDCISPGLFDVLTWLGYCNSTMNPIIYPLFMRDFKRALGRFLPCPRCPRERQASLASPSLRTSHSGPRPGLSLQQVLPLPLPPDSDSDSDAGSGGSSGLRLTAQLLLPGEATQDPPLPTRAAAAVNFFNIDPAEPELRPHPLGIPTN
T2 sequence (P28223 whole entry): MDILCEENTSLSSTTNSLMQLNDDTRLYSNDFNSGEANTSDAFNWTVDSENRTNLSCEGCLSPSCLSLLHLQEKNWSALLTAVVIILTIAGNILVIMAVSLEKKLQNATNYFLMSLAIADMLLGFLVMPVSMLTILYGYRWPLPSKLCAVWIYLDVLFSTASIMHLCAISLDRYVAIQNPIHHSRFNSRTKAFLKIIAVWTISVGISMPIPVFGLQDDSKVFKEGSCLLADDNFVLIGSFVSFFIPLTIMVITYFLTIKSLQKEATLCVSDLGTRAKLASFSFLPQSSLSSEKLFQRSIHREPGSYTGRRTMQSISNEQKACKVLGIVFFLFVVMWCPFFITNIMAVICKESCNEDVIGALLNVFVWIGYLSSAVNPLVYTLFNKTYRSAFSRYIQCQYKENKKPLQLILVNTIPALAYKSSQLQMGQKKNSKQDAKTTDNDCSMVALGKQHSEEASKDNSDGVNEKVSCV
Chain of other receptor sites (Homo sapiens, UniProt Q13639) (Q13639 whole entry): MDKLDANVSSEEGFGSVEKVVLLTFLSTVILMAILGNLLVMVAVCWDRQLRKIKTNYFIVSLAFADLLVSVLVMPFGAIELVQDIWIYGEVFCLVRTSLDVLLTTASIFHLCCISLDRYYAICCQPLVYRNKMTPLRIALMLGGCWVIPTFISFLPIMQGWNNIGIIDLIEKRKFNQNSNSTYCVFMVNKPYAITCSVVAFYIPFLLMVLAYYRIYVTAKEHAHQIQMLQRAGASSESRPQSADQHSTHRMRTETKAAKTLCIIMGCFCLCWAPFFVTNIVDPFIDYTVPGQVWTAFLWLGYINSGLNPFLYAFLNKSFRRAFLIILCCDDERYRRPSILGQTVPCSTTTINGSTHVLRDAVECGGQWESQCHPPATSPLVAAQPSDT
Chain of other receptor sites (Homo sapiens, UniProt P34969) (P34969 whole entry): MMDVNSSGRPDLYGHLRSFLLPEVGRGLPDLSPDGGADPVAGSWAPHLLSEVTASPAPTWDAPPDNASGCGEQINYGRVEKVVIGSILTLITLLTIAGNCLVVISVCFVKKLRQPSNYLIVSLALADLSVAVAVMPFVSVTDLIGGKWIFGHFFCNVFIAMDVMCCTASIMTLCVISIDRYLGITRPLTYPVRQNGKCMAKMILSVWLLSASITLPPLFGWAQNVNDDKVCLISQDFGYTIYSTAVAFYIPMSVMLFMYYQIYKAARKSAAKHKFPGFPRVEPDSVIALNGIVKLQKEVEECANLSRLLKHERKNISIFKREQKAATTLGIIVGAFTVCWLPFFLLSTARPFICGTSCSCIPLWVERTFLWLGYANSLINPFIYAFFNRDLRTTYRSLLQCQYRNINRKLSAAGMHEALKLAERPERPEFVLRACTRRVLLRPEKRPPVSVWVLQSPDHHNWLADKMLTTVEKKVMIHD
Chain of other receptor sites (Homo sapiens, UniProt P47898) (P47898 whole entry): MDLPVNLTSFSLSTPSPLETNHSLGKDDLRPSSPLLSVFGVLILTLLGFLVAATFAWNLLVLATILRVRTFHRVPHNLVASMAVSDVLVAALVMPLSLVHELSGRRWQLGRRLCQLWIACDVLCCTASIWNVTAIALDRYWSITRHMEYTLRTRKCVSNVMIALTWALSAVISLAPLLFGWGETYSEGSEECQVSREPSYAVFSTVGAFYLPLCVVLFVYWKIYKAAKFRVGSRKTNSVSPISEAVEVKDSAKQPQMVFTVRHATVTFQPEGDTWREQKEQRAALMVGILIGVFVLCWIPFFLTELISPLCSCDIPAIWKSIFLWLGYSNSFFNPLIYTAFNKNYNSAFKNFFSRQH
Chain of other receptor sites (Homo sapiens, UniProt P28222) (P28222 whole entry): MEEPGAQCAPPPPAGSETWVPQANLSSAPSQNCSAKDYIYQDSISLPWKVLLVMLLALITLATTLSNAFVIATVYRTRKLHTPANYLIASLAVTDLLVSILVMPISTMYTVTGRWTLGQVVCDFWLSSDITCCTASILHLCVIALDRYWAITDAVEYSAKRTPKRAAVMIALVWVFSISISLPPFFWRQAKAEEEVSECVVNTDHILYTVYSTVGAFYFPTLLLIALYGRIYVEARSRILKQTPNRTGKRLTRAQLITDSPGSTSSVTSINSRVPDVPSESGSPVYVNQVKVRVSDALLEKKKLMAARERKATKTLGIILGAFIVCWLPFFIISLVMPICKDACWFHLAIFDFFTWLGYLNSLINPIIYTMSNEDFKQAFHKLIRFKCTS
Chain of other receptor sites (Homo sapiens, UniProt P28566) (P28566 whole entry): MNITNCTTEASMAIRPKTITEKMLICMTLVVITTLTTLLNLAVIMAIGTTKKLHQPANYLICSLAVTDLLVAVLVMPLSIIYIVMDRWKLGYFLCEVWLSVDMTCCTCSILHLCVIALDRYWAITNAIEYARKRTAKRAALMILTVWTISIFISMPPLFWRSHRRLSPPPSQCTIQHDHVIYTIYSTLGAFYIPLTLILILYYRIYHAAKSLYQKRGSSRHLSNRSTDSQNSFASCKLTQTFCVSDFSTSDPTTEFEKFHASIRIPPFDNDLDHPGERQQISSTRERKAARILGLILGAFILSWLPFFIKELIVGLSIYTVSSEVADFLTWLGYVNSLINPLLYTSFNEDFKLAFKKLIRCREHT
Chain of other receptor sites (Homo sapiens, UniProt P28221) (P28221 whole entry): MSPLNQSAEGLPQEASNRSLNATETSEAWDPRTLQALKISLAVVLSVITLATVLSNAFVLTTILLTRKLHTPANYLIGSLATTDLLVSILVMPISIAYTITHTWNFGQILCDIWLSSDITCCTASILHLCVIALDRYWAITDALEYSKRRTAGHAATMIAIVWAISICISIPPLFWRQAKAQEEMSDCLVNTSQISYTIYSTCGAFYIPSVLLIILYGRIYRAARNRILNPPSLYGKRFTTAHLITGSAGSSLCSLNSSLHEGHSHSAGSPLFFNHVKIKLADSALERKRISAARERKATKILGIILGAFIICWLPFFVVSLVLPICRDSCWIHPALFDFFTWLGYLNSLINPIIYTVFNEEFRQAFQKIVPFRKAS

**Q.** For `CN(C)CCc1c[nH]c2cccc(O)c12` [drawing 39], which “5-HT2B Eff %” value (5-HT2B receptor; [9]) is on record?
**A.** 63%

**Q.** And the EC50 (5-HT6 receptor)?
**A.** 183 nM

**Q.** What about the “5-HT6 Eff %” value (5-HT6 receptor) of the same compound?
**A.** 74%

**Q.** And the “5-HT1A Eff %” value (other receptor sites [1])?
**A.** 93%

**Q.** And the “5-HT1B Eff %” value (other receptor sites [1])?
**A.** 94%

**Q.** And the “5-HT1D Eff %” value (other receptor sites [1])?
**A.** 102%

**Q.** What about the “5-HT1E Eff %” value (other receptor sites [1]) of the same compound?
**A.** 90%

**Q.** What about the “5-HT4 Eff %” value (other receptor sites [1]) of the same compound?
**A.** 81%

**Q.** And the “5-HT5A Eff %” value (other receptor sites [1])?
**A.** 48%

**Q.** What about the “5-HT7 Eff %” value (other receptor sites [1]) of the same compound?
**A.** 86%

**Q.** And the EC50 (other receptor sites [2])?
**A.** 525 nM

**Q.** And the EC50 (other receptor sites [3])?
**A.** 563 nM

**Q.** And the “5-HT2A Eff %” value (5-HT2A receptor; [10])?
**A.** 82%

**Q.** And the EC50 (5-HT1F receptor)?
**A.** 9.3 nM

**Q.** What about the “5-HT1F Eff %” value (5-HT1F receptor) of the same compound?
**A.** 93%

**Q.** Which EC50 (5-HT2B receptor; 5-HT2B EC50 (nM), Table 5, 5-HT2B receptor, compared with psilocin) does the source give for `Cc1ccc(O)c2c(CCN(C)C)c[nH]c12` [drawing 38] here?
**A.** 3.6 nM

**Q.** And the “5-HT2B Eff %” value (5-HT2B receptor; [9])?
**A.** 16%

**Q.** And the “5-HT2C Eff %” value (5-HT2C receptor; Table 5, 5-HT2C receptor, compared with psilocin)?
**A.** 79%

**Q.** And the EC50 (5-HT2C receptor; Table 5, 5-HT2C receptor, compared with psilocin, read-out: 5-HT2C EC50)?
**A.** 6.9 nM

**Q.** What about the EC50 (5-HT6 receptor) of the same compound?
**A.** 9 nM

**Q.** And the “5-HT6 Eff %” value (5-HT6 receptor)?
**A.** 48%

**Q.** What about the EC50 (other receptor sites [4]) of the same compound?
**A.** 167 nM

**Q.** What about the EC50 (other receptor sites [5]) of the same compound?
**A.** 309 nM

**Q.** And the “5-HT1A Eff %” value (other receptor sites [1])?
**A.** 76%

**Q.** What about the “5-HT1B Eff %” value (other receptor sites [1]) of the same compound?
**A.** 105%

**Q.** What about the “5-HT1D Eff %” value (other receptor sites [1]) of the same compound?
**A.** 112%

**Q.** What about the “5-HT1E Eff %” value (other receptor sites [1]) of the same compound?
**A.** 102%

**Q.** And the “5-HT4 Eff %” value (other receptor sites [1])?
**A.** 13%

**Q.** What about the “5-HT5A Eff %” value (other receptor sites [1]) of the same compound?
**A.** 20%

**Q.** And the “5-HT7 Eff %” value (other receptor sites [1])?
**A.** 3.4%

**Q.** What about the EC50 (other receptor sites [6]) of the same compound?
**A.** 12.6 µM

**Q.** What about the EC50 (other receptor sites [2]) of the same compound?
**A.** 5.2 nM

**Q.** What about the EC50 (other receptor sites [7]) of the same compound?
**A.** 749 nM

**Q.** What about the EC50 (other receptor sites [8]) of the same compound?
**A.** 23 µM

**Q.** What about the EC50 (other receptor sites [3]) of the same compound?
**A.** 257 nM

**Q.** And the “5-HT2A Eff %” value (5-HT2A receptor; [10])?
**A.** 73%

**Q.** And the EC50 (5-HT2A receptor; read-out: 5-HT2A EC50, Table 5, 5-HT2A receptor, compared with psilocin)?
**A.** 66 nM

**Q.** What about the EC50 (5-HT1F receptor) of the same compound?
**A.** 23 nM

**Q.** What about the “5-HT1F Eff %” value (5-HT1F receptor) of the same compound?
**A.** 92%

**Q.** What does the source list for `CN(C)CCc1c[nH]c2c(CCO)ccc(O)c12` [Compound 7, 3-[2-(Dimethylamino)ethyl]-7-(2-hydroxyethyl)indol-4-ol]?
**A.** 5-HT2B BRET Eff % (5-HT2B receptor; [11]): inactive; 5-HT2B BRET EC50 (nM) (5-HT2B receptor; Table 4, relative to 4-hydroxytryptamine, at least three replicate trials): inactive; 5-HT2C BRET Eff % (5-HT2C receptor; [11]): 76%; EC50 (5-HT2C receptor; Table 4, relative to 4-hydroxytryptamine, at least three replicate trials, read-out: 5-HT2C BRET EC50): 5.6 nM; 5-HT2A BRET Eff % (5-HT2A receptor; [11]): 81%; EC50 (5-HT2A receptor; Table 4, relative to 4-hydroxytryptamine, at least three replicate trials, read-out: 5-HT2A BRET EC50): 75 nM
